# Patent publication US9260382B2, “Methods of reducing virulence in bacteria” (priority 2010, dated 2016)
# Where “and” joins values, the source holds several entries; their conditions need not be identical. Identical values can stand only once.
# Key:
# hrpN promoter (T3SS) = test: GFP reporter plasmid phrpN, flow cytometry of hrpN promoter activity; type: cell-based, Dickeya dadantii 3937; conditions: for mean fluorescence intensity of GFP, hrpN promoter: 3937 (phrpN), MM + 100 μM; for hrpN expression in Ech3937 and hrpX, hrpY, hrpS mutants, in words: 0.1 mM, 12 h (FIG. 5); for GFP Mean Fluorescence Intensity, hrpN promoter: MM + 0.1 mM compound
# Procedure: (§1) FACS analysis of promoter activity of dspE, hrpA, hrpL, hrpN, and hrpS was carried out as described (Peng et al., 2006). Briefly, the wild-type Ech3937 and the mutant strains carrying the promoter reporter plasmid were grown on LB broth at 28° C. overnight and transferred to appropriate media. For FACS analysis, samples were collected by centrifugation, washed with 1× phosphate buffer saline (PBS) at 13,000 rpm for 1 min, and re-suspended in 1×PBS to ca 10^6 CFU/ml prior to being run in a FACS Calibur flow cytometer (BD Biosciences, CA). Three replicates were performed for each treatment.
# Phenolic compounds constitute an important class of organic substances produced by plants. The phenolic compound SA is a signaling molecule that plays a role in host defenses. OCA and TCA are the biosynthetic precursors of SA and are also reported to induce the expression of defense-related genes in plants. OCA, TCA, and SA were examined to elucidate their effects on the expression of T3SS genes. The expression of the T3SS gene hrpN was examined in MM and MM supplemented with OCA, TCA, and SA, at concentrations of 0.05, 0.1, and 0.2 mM, respectively. FIGS. 2A and 2B show the promoter activities of hrpN in Dickeya dadantii 3937 (Ech3937) grown in MM and MM supplemented with 0.05, 0.1, and 0.2 mM OCA, TCA, and SA at 12 h (FIG. 2A) and 24 h (FIG. 2B) post-inoculation. GFP intensity was determined on gated populations of bacterial cells by flow cytometry and analyzed with the Cell Quest software (BD Biosciences, San Jose, Calif.). The growth of Ech3937 in MM supplemented with different concentrations of OCA, TCA and SA was recorded. Compared with MM alone, the average GFP fluorescence intensity of bacterial cells of Ech3937 (phrpN) was increased approximately 4-fold when 0.05 mM of OCA and TCA were added to the medium (FIGS. 2A, 2B).
# exoS promoter (T3SS) = test: exoS promoter-gfp reporter pATexoS, flow cytometry; type: cell-based, P. aeruginosa PA01; conditions: for Actual readings of flow cytometry (exoS expression): 6 h, LB with 200 mM NaCl, 10 mM NTA; for Fraction of untreated control (exoS expression): structure-activity table, concentration not given
# Procedure: To identify T3SS inhibitors of PA01, a promoter-probe vector pPROBE-AT containing the promoterless green fluorescent protein (gfp) gene was used to construct an exoS promoter-gfp plasmid reporter, pATexoS. PA01 containing pATexoS was cultured in T3SS-inducing medium containing dimethyl sulfoxide (DMSO; solvent of chemical compounds), or supplemented with 250 μM of each compound, and promoter activity was assessed at 6 h by measuring GFP intensity using flow cytometry. 101 compounds (58 synthesized and 43 commercially available) were screened. Compounds 027, 032, 101, and 149 repressed exoS expression at the final concentration of 250 μM by at least one standard deviation below the sample average (Z score≦−1) (FIG. 37 A-E). Z score (or standard score) indicates how many standard deviations an observation or datum is above or below the mean [z=(x−μ)/σ, where x is a raw score to be standardized, μ is the mean of the population, and σ is the standard deviation of the population].
# To determine the effective concentration of compounds, the dose-dependent effect of potential inhibitors on exoS expression and bacterial growth were tested. P. aeruginosa cells carrying pATexoS were pre-cultured in LB supplemented with 200 mM NaCl and transferred to fresh LB with 200 mM NaCl, 10 mM NTA, and various concentrations of compounds (20, 50, 100, and 250 μM) or DMSO for 6 h. […] At 50 μM dosage, both 027 and 101 inhibited exoS expression at similar levels, and this inhibitory effect increased as compound concentration increased (FIG. 38A and Table 17). […] These inhibitions/inductions of exoS expression are caused by the shifting bacterial population between low-state expression cells and high-state expression cells (FIG. 40).
# [1] = test system: mrp promoter (reference gene); test: GFP reporter plasmid pmrp, flow cytometry (reference gene); type: cell-based, Dickeya dadantii 3937; conditions: for mean fluorescence intensity of GFP, mrp promoter: 3937 (pmrp), MM + 100 μM
# Procedure: as §1
# Since OCA and TCA induced the expression of hrpN, the effect of these two phenolic compounds on the expression of hrpA, hrpL, and hrpS was investigated further. […] GFP intensity was determined on gated populations of bacterial cells by flow cytometry and analyzed with the Cell Quest software (BD Biosciences, San Jose, Calif.). The lines labeled “1” stand for the GFP expression control base level of the Ech3937 containing pPROBE-AT vector; lines labeled “2” stand for the promoter activity of hrpS, hrpL, hrpA and hrpN in Ech3937 in MM; lines labeled “3” stand for the promoter activity of Ech3937 in MM supplemented with 0.1 mM OCA; lines labeled “4” stand for the promoter activity of hrpL mutant WPP96 in MM; lines labeled “5” stand for the promoter activity of hrpL mutant WPP96 in MM supplemented with 0.1 mM OCA. Values are representative of at least two experiments. […] Compared with MM alone, the average GFP fluorescence intensity of bacterial cells of Ech3937 (phrpA) was doubled when 0.1 mM of OCA and TCA were added to the medium (Table 4; FIG. 3). […] The mrp, whose protein product has an ATPase conserved domain (2e-06), was used as a reference gene in this study.
# dspE mRNA = test: qRT-PCR relative mRNA level of dspE; type: cell-based, Dickeya dadantii 3937; conditions: 0.1 mM in MM
# Procedure: (§2) Bacterial strains were grown in MM. Total RNA from the bacterial cells was isolated by using the TRI reagent method (Sigma, Mo.) and treated with Turbo DNA-free DNase kits (Ambion, Tex.) as described (Peng et al., 2006). An iScript cDNA Synthesis Kit (Bio-Rad, CA) was used to synthesize cDNA from 0.5 μg of treated total RNA. The Real Master Mix (Eppendorf, Westbury, N.Y.) was used for qRT-PCR reaction to quantify the cDNA level of target genes in different samples. The rplU was used as the endogenous control for data analysis. qRT-PCR data were analyzed using Relative Expression Software Tool as described (Pfaffl, M. W., Horgan, G. W., and Dempfle, L. (2002) Relative expression software tool (REST) for group-wise comparison and statistical analysis of relative expression results in real-time PCR. Nucleic Acids Res 30:e36.).
# hrpA mRNA = test: qRT-PCR relative mRNA level of hrpA; type: cell-based, Dickeya dadantii 3937; conditions: 0.1 mM in MM
# Procedure: as §2
# rsmB RNA = test: qRT-PCR relative mRNA level of rsmB; type: cell-based, Dickeya dadantii 3937; conditions: for rsmB mRNA relative expression ratio (MM alone normalized to 1): Ech3937 in MM supplemented with compound
# Procedure: as §2
# [2] = hrpL mutant WPP96 (phrpN), 12 h
structure (smiles),measurement,setting,value
"O=C(/C=C/c1ccc(O)cc1)NO [Compound 103, trans-4-Hydroxycinnamohydroxamic acid]","mean fluorescence intensity of GFP, hrpN promoter",hrpN promoter (T3SS); 12 h,5.8 ± 0.7
same,"mean fluorescence intensity of GFP, hrpN promoter",hrpN promoter (T3SS); 24 h,5.4 ± 0.3
same,Actual readings of flow cytometry (exoS expression),exoS promoter (T3SS); 20 uM,179.07 ± 2.98
same,Actual readings of flow cytometry (exoS expression),exoS promoter (T3SS); 50 uM,237.31 ± 4.94
same,Actual readings of flow cytometry (exoS expression),exoS promoter (T3SS); 100 uM,279.16 ± 2.72
same,Actual readings of flow cytometry (exoS expression),exoS promoter (T3SS); 250 uM,328.30 ± 3.24
same,Fraction of untreated control (exoS expression),exoS promoter (T3SS),2.04 ± 0.13
same,"mean fluorescence intensity of GFP, mrp promoter",[1]; 12 h,81.2 ± 0.7
same,"mean fluorescence intensity of GFP, mrp promoter",[1]; 24 h,67.7 ± 2.5
"O=C(O)/C=C/c1ccccc1O [Compound 006, Ortho-coumaric acid]","hrpN expression in Ech3937 and hrpX, hrpY, hrpS mutants, in words",hrpN promoter (T3SS),"induced the expression of hrpN in Ech3937, but not in hrpX, hrpY, and hrpS mutants"
same,"GFP Mean Fluorescence Intensity, hrpN promoter","hrpN promoter (T3SS); Ech3937 (phrpN), 6 h",31 ± 3
same,"GFP Mean Fluorescence Intensity, hrpN promoter","hrpN promoter (T3SS); Ech3937 (phrpN), 12 h, listed as OCA",94 ± 3 and 91 ± 8
same,"GFP Mean Fluorescence Intensity, hrpN promoter","hrpN promoter (T3SS); Ech3937 (phrpN), 24 h",78 ± 8
same,"GFP Mean Fluorescence Intensity, hrpN promoter",hrpN promoter (T3SS); [2],3.3 ± 0.1
same,"GFP Mean Fluorescence Intensity, hrpN promoter","hrpN promoter (T3SS); iaaM mutant Ech138 (phrpN), 6 h",9.1 ± 1.6
same,"GFP Mean Fluorescence Intensity, hrpN promoter","hrpN promoter (T3SS); iaaM mutant Ech138 (phrpN), 12 h",33 ± 5
same,"GFP Mean Fluorescence Intensity, hrpN promoter","hrpN promoter (T3SS); iaaM mutant Ech138 (phrpN), 24 h",39 ± 5
same,"dspE mRNA compared with MM alone, in words",dspE mRNA,significantly higher amount
same,"hrpA mRNA compared with MM alone, in words",hrpA mRNA,significantly higher amount
same,rsmB mRNA relative expression ratio (MM alone normalized to 1),rsmB RNA,1.4
"O=C(O)/C=C/c1ccccc1 [Compound 001, trans-cinnamic acid]",increase of average GFP fluorescence intensity of Ech3937 (phrpN) compared with MM alone,"hrpN promoter (T3SS); 0.05 mM compound, 12 h and 24 h (FIGS. 2A, 2B)",approximately 4 fold
same,"hrpN expression in Ech3937 and hrpX, hrpY, hrpS mutants, in words",hrpN promoter (T3SS),"induced the expression of hrpN in Ech3937, but not in hrpX, hrpY, and hrpS mutants"
same,"GFP Mean Fluorescence Intensity, hrpN promoter","hrpN promoter (T3SS); Ech3937 (phrpN), 12 h",103 ± 1
same,GFP Intensity of Ech3937 (phrpN),"hrpN promoter (T3SS); MM + 0.2 μM compound, 12 h",65.1 ± 6.8
same,GFP Intensity of Ech3937 (phrpN),"hrpN promoter (T3SS); MM + 0.2 μM compound, 24 h",163 ± 25
same,GFP Intensity of Ech3937 (phrpN),"hrpN promoter (T3SS); MM + 0.5 μM compound, 12 h",73.4 ± 4.2
same,GFP Intensity of Ech3937 (phrpN),"hrpN promoter (T3SS); MM + 0.5 μM compound, 24 h",158 ± 20
same,GFP Intensity of Ech3937 (phrpN),"hrpN promoter (T3SS); MM + 5 μM compound, 12 h",134 ± 5.6
same,GFP Intensity of Ech3937 (phrpN),"hrpN promoter (T3SS); MM + 5 μM compound, 24 h",266 ± 14
same,GFP Intensity of Ech3937 (phrpN),"hrpN promoter (T3SS); MM + 10 μM compound, 12 h",147 ± 18
same,GFP Intensity of Ech3937 (phrpN),"hrpN promoter (T3SS); MM + 10 μM compound, 24 h",284 ± 12
same,"GFP Mean Fluorescence Intensity, hrpN promoter",hrpN promoter (T3SS); [2],3.3 ± 0
same,"GFP Mean Fluorescence Intensity, mrp promoter (reference gene)","[1]; Ech3937 (pmrp), MM + 0.1 mM compound, 12 h",105 ± 0.3
same,rsmB mRNA relative expression ratio (MM alone normalized to 1),rsmB RNA,1.58
"O=C(O)/C=C/c1ccc(O)cc1 [Compound 004, para-coumaric acid]","GFP Mean Fluorescence Intensity, hrpN promoter","hrpN promoter (T3SS); Ech3937 (phrpN), 12 h, listed as PCA",6.8 ± 0.8 and 4.3 ± 0.1
same,"GFP Mean Fluorescence Intensity, hrpN promoter","hrpN promoter (T3SS); Ech3937 (phrpN), 24 h, listed as PCA",8.8 ± 2.1
same,"GFP Mean Fluorescence Intensity, hrpN promoter",hrpN promoter (T3SS); [2],3.0 ± 0.0
same,"GFP Mean Fluorescence Intensity, hrpN promoter","hrpN promoter (T3SS); hrpL mutant WPP96 (phrpN), 24 h",4.3 ± 0.1
same,"GFP Mean Fluorescence Intensity, hrpN promoter","hrpN promoter (T3SS); hrpS mutant WPP90 (phrpN), 12 h",3.5 ± 0.1
same,"GFP Mean Fluorescence Intensity, hrpN promoter","hrpN promoter (T3SS); hrpS mutant WPP90 (phrpN), 24 h",5.1 ± 0.1
same,"GFP Mean Fluorescence Intensity, hrpN promoter","hrpN promoter (T3SS); hrpX mutant WPP67 (phrpN), 12 h",3.5 ± 0.2
same,"GFP Mean Fluorescence Intensity, hrpN promoter","hrpN promoter (T3SS); hrpX mutant WPP67 (phrpN), 24 h",6.3 ± 0.7
same,"GFP Mean Fluorescence Intensity, hrpN promoter","hrpN promoter (T3SS); hrpY mutant WPP92 (phrpN), 12 h",3.6 ± 0.1
same,"GFP Mean Fluorescence Intensity, hrpN promoter","hrpN promoter (T3SS); hrpY mutant WPP92 (phrpN), 24 h",5.5 ± 0.3
same,"dspE mRNA compared with MM alone, in words",dspE mRNA,significantly lower amount of mRNA
same,"hrpA mRNA compared with MM alone, in words",hrpA mRNA,significantly lower amount of mRNA
same,Actual readings of flow cytometry (exoS expression),exoS promoter (T3SS); 20 uM,119.08 ± 1.82
same,Actual readings of flow cytometry (exoS expression),exoS promoter (T3SS); 50 uM,127.05 ± 4.43
same,Actual readings of flow cytometry (exoS expression),exoS promoter (T3SS); 100 uM,118.16 ± 2.73
same,Actual readings of flow cytometry (exoS expression),exoS promoter (T3SS); 250 uM,117.74 ± 5.09
same,"effect on exoS promoter activity, in words",exoS promoter (T3SS); screening for T3SS inhibitors,little or no effect on exoS promoter activity
same,Fraction of untreated control (exoS expression),exoS promoter (T3SS),0.94 ± 0.05
same,"rsmB mRNA compared with MM alone, in words",rsmB RNA; 0.1 mM in MM,No significant difference
